In ChEMBL document CHEMBL5143523, “Construction and activity evaluation of novel benzodioxane derivatives as dual-target antifungal inhibitors” (Eur J Med Chem, 2022):
pIC50: −log10 of the molar value. ≈ marks a conversion by molar mass, not a printed value. Calls of active or inactive are those of the source. The rule behind the calls is not given here.

Legend:
Candida albicans [1] = experiment: Antifungal activity against Candida albicans ATCC SC5314 assessed as decrease in ergosterol content at 4 ug/ml incubated for 48 hrs by LC-MS analysis (reference value: 90.6%); type: functional; parameters: scale not given: the % may be the effect or the level left; conditions: dose 4 µg/ml
[2] = Toxicity in mouse infected with Candida albicans ATCC SC5314 assessed as pathological changes in liver at 4 mg/kg, ip administered ever other day for 12 days by hematoxylin and eosin staining based histopathological analysis; type: organism-based; conditions: in vivo, 288 h, time 12 day
[3] = Nephrotoxicity in mouse infected with Candida albicans ATCC SC5314 assessed as change in plasma BUN level at 4 mg/kg, ip administered ever other day for 12 days; type: toxicity, organism-based; conditions: in vivo, 288 h, time 12 day
Candida albicans [4] = experiment: Antifungal activity against fluconazole resistant Candida albicans strain 17# assessed as fungal growth inhibition measured after 72 hrs by CLSI protocol based liquid medium dilution method; type: functional
[5] = Toxicity in mouse infected with Candida albicans ATCC SC5314 assessed as pathological changes in heart at 4 mg/kg, ip administered ever other day for 12 days by hematoxylin and eosin staining based histopathological analysis; type: organism-based; conditions: in vivo, 288 h, time 12 day
Mus musculus [6] = experiment: In vivo antifungal activity against Candida albicans ATCC SC5314 infected mouse assessed as regular arrangement of endothelial tissue at 4 mg/kg, ip administered ever other day for 12 days by hematoxyin-eosin staining based microscopic analysis; type: functional, organism-based; conditions: time 12.0 day
Candida albicans [7] = experiment: Antifungal activity against Candida albicans ATCC SC5314 assessed as change in eburicol level at 4 ug/ml incubated for 48 hrs by LC-MS analysis (reference value: 1.4%); type: functional; conditions: dose 4 µg/ml
[8] = Toxicity in mouse infected with Candida albicans ATCC SC5314 assessed as pathological changes in kidney at 4 mg/kg, ip administered ever other day for 12 days by hematoxylin and eosin staining based histopathological analysis; type: organism-based; conditions: in vivo, 288 h, time 12 day
[9] = Toxicity in mouse infected with Candida albicans ATCC SC5314 assessed as pathological changes in spleen at 4 mg/kg, ip administered ever other day for 12 days by hematoxylin and eosin staining based histopathological analysis; type: organism-based; conditions: in vivo, 288 h, time 12 day
Mus musculus [10] = experiment: In vivo antifungal activity against Candida albicans ATCC SC5314 infected mouse model assessed as reduction in nuclear aggregation at 4 mg/kg, ip administered ever other day for 12 days by hematoxyin-eosin staining based microscopic analysis; type: functional, organism-based; conditions: time 12.0 day
Candida albicans [11] = experiment: Antifungal activity against fluconazole resistant Candida albicans strain 103 assessed as fungal growth inhibition measured after 72 hrs by CLSI protocol based liquid medium dilution method; type: functional
[12] = Hepatotoxicity in mouse infected with Candida albicans ATCC SC5314 assessed as change in plasma AST level at 4 mg/kg, ip administered ever other day for 12 days; type: toxicity, organism-based; conditions: in vivo, 288 h, time 12 day
Candida albicans [13] = experiment: Induction of apoptosis in Candida albicans ATCC SC5314 cells assessed as late apoptotic cells at 8 ug/ml incubated for 72 hrs by Annexin V-FITC/PI staining based flow cytometry method (reference value: 0.12%); type: functional; conditions: dose 8 µg/ml
Nakaseomyces glabratus = experiment: Antifungal activity against Candida glabrata ATCC 0001 assessed as fungal growth inhibition measured after 72 hrs by CLSI protocol based liquid medium dilution method; type: functional
Aspergillus fumigatus = experiment: Antifungal activity against Aspergillus fumigatus KM8001 assessed as fungal growth inhibition measured after 72 hrs by CLSI protocol based liquid medium dilution method; type: functional
Pichia kudriavzevii = experiment: Antifungal activity against Candida krusei ATCC 6258 assessed as fungal growth inhibition measured after 72 hrs by CLSI protocol based liquid medium dilution method; type: functional
Candida albicans [14] = experiment: Antifungal activity against Candida albicans ATCC 10231 assessed as fungal growth inhibition measured after 72 hrs by CLSI protocol based liquid medium dilution method; type: functional
Candida albicans [15] = experiment: Antifungal activity against Candida albicans ATCC SC5314 assessed as change in unknown sterol level at 4 ug/ml incubated for 48 hrs by LC-MS analysis (reference value: 4.3%); type: functional; conditions: dose 4 µg/ml
Candida tropicalis = experiment: Antifungal activity against Candida tropicalis ATCC 1369 assessed as fungal growth inhibition measured after 72 hrs by CLSI protocol based liquid medium dilution method; type: functional
[16] = Hepatotoxicity in mouse infected with Candida albicans ATCC SC5314 assessed as change in plasma ALT level at 4 mg/kg, ip administered ever other day for 12 days; type: toxicity, organism-based; conditions: in vivo, 288 h, time 12 day
Mus musculus [17] = experiment: In vivo antifungal activity against Candida albicans ATCC SC5314 infected mouse assessed as increase in body weight at 4 mg/kg, ip administered ever other day for 12 days; type: functional, organism-based; conditions: time 12.0 day
Mus musculus [18] = experiment: In vivo antifungal activity against Candida albicans ATCC SC5314 infected mouse model assessed as regular arrangement of intercellular space at 4 mg/kg, ip administered ever other day for 12 days by hematoxyin-eosin staining based microscopic analysis; type: functional, organism-based; conditions: time 12.0 day
Candida albicans [19] = experiment: Induction of apoptosis in Candida albicans ATCC SC5314 cells assessed as early apoptotic cells at 8 ug/ml incubated for 72 hrs by Annexin V-FITC/PI staining based flow cytometry method (reference value: 0.56%); type: functional; conditions: dose 8 µg/ml
Mus musculus [20] = experiment: In vivo antifungal activity against Candida albicans ATCC SC5314 infected mouse assessed as reduction in fungal infection region at 4 mg/kg, ip administered ever other day for 12 days; type: functional, organism-based; conditions: time 12.0 day
Candida albicans [21] = experiment: Antifungal activity against fluconazole resistant Candida albicans strain 901 assessed as fungal growth inhibition measured after 72 hrs by CLSI protocol based liquid medium dilution method; type: functional
Candida albicans [22] = experiment: Antifungal activity against Candida albicans ATCC SC5314 assessed as change in squalene level at 4 ug/ml incubated for 48 hrs by LC-MS analysis; type: functional; conditions: dose 4 µg/ml
[23] = biological target: Lanosterol 14-alpha demethylase (Candida albicans (strain SC5314 / ATCC MYA-2876) (Yeast), UniProt P10613); experiment: Inhibition of CYP51 in Candida albicans ATCC SC5314 incubated for 30 mins using eburicol as substrate in presence of NADPH by HPLC analysis
Candida albicans [24] = experiment: Antifungal activity against fluconazole resistant Candida albicans strain CaR assessed as fungal growth inhibition measured after 72 hrs by CLSI protocol based liquid medium dilution method; type: functional
[25] = Drug uptake in fluconazole resistant Candida albicans strain 901 at 4 ug/ml by fluorescence microscopy; type: ADME; conditions: dose 4 µg/ml
Candida albicans [26] = experiment: Induction of apoptosis in Candida albicans ATCC SC5314 cells assessed as necrotic cells at 8 ug/ml incubated for 72 hrs by Annexin V-FITC/PI staining based flow cytometry method (reference value: 3.76%); type: functional; conditions: dose 8 µg/ml
Mus musculus [27] = experiment: In vivo antifungal activity against Candida albicans ATCC SC5314 infected mouse model assessed as disappearance of pathogenic fungi at 4 mg/kg, ip administered ever other day for 12 days by hematoxyin-eosin staining based microscopic analysis; type: functional, organism-based; conditions: time 12.0 day
Candida albicans [28] = experiment: Antifungal activity against Candida albicans ATCC SC5314 assessed as change in lanosterol level at 4 ug/ml incubated for 48 hrs by LC-MS analysis (reference value: 3.7%); type: functional; conditions: dose 4 µg/ml
Candida albicans [29] = experiment: Antifungal activity against fluconazole resistant Candida albicans strain 901 assessed as decrease in fungal cell density at 4 ug/ml by fluorescence microscopy; type: functional, organism-based; conditions: dose 4.0 µg/ml
Candida albicans [30] = experiment: Antifungal activity against fluconazole resistant Candida albicans strain 904 assessed as fungal growth inhibition measured after 72 hrs by CLSI protocol based liquid medium dilution method; type: functional
Squalene epoxidase ERG1 = biological target: T1, Squalene epoxidase ERG1 (Candida albicans, UniProt Q92206); experiment: Inhibition of SE in Candida albicans ATCC SC5314 incubated for 30 mins using squalene as substrate in presence of NADPH by spectrophotometer analysis
T1 sequence (Q92206 whole entry): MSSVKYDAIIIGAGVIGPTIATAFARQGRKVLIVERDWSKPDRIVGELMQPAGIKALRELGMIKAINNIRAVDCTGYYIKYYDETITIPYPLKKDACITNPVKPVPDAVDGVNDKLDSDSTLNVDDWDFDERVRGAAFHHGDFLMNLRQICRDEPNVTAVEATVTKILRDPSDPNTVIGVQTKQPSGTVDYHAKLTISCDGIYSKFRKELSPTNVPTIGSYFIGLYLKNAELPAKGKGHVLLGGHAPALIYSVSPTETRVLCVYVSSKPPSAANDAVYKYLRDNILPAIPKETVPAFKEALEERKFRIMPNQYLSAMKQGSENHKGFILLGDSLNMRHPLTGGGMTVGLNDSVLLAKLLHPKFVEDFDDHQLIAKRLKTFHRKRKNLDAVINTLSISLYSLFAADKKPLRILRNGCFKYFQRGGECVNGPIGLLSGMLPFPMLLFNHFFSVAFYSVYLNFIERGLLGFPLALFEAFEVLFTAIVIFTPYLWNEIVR

[31] = Toxicity in mouse infected with Candida albicans ATCC SC5314 assessed as pathological changes in lung at 4 mg/kg, ip administered ever other day for 12 days by hematoxylin and eosin staining based histopathological analysis; type: organism-based; conditions: in vivo, 288 h, time 12 day
Candida albicans [32] = experiment: Induction of apoptosis in Candida albicans ATCC SC5314 cells assessed as live cells at 8 ug/ml incubated for 72 hrs by Annexin V-FITC/PI staining based flow cytometry method (reference value: 95.56%); type: functional; conditions: dose 8 µg/ml

Lanosterol 14-alpha demethylase, sequence (P10613 whole entry): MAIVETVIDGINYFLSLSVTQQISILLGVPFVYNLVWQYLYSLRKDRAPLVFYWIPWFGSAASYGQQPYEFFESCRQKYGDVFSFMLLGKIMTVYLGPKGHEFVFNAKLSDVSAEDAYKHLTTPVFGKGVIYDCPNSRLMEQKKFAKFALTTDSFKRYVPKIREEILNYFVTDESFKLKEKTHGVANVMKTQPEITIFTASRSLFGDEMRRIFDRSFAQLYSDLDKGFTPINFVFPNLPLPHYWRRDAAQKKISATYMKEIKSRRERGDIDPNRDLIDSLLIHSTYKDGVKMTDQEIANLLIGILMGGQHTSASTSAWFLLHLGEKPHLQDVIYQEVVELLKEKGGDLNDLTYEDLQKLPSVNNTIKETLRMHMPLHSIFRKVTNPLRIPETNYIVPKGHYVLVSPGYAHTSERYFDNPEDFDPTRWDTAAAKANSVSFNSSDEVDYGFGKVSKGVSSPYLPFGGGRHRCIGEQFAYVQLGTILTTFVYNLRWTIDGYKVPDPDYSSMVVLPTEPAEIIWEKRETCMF

Structure (SMILES): O=C(N[C@H](Cc1ccccc1)Cn1cncn1)c1ccc2c(c1)OCCO2
- Activity (Candida albicans [1]): 24.7%
- Activity [2]: Non-Toxic
- Activity [3]: 13.1 mmol/L
- MIC50 (Candida albicans [4]): 2 µg/mL (≈ 5.49 µM)
- Activity [5]: Non-Toxic
- Activity (Mus musculus [6]): Active
- Activity (Candida albicans [7]): 35.3%
- Activity [8]: Non-Toxic
- Activity [9]: Non-Toxic
- Activity (Mus musculus [10]): Active
- MIC50 (Candida albicans [11]): 1 µg/mL (≈ 2.74 µM)
- Activity [12]: 83 IU/L
- Activity (Candida albicans [13]): 1.62%
- MIC50 (Nakaseomyces glabratus): 0.25 µg/mL (≈ 0.686 µM)
- MIC50 (Aspergillus fumigatus): 2 µg/mL (≈ 5.49 µM)
- MIC50 (Pichia kudriavzevii): 0.125 µg/mL (≈ 0.343 µM)
- MIC50 (Candida albicans [14]): 0.25 µg/mL (≈ 0.686 µM)
- Activity (Candida albicans [15]): 6.2%
- MIC50 (Candida tropicalis): 0.125 µg/mL (≈ 0.343 µM)
- Activity [16]: 54.6 IU/L
- Activity (Mus musculus [17]): Active
- Activity (Mus musculus [18]): Active
- Activity (Candida albicans [19]): 0.38%
- Activity (Mus musculus [20]): Active
- MIC50 (Candida albicans [21]): 1 µg/mL (≈ 2.74 µM)
- Activity (Candida albicans [22]): 15.3%
- pIC50 [23]: 6.45
- MIC50 (Candida albicans [24]): 1 µg/mL (≈ 2.74 µM)
- Drug uptake [25]: Active
- Activity (Candida albicans [26]): 45.83%
- Activity (Mus musculus [27]): Active
- Activity (Candida albicans [28]): 18.5%
- Activity (Candida albicans [29]): Active
- MIC50 (Candida albicans [30]): 2 µg/mL (≈ 5.49 µM)
- pIC50 (Squalene epoxidase ERG1): 6.08
- Activity [31]: Non-Toxic
- Activity (Candida albicans [32]): 52.17%
